According to PMC9797592, “TJ-M2010-5, a novel CNS drug candidate, attenuates acute cerebral ischemia-reperfusion injury through the MyD88/NF-κB and ERK pathway” (Frontiers in Pharmacology, 2022):
Where two headings read alike, the source gives them in different places.

Assays:
CIRI mice = test: RT-qPCR and ELISA of inflammatory factors in the brain of CIRI mice; type: in vivo, C57BL/6 mice; details: TJ-5 15 mg/kg i.v. after 1 h ischemia
Description: Total mRNA was extracted from the brain cortex using TRIzol reagent and reverse-transcribed into cDNA using the PrimeScript™ RT reagent kit (Takara, Japan), following the manufacturer’s instructions. RT-qPCR was performed using SYBR Green Real-time PCR Master Mix (Takara, Japan) with the Step One System (Life Technologies). The results were expressed as fold change from the untreated control and analyzed using the 2^−ΔΔCt method. The primers were as follows (5′–3′): MyD88 forward: TTTATCTGCTACTGCCCCAACG, reverse: GCGGCGACACCTTTTCTCA; TLR4 forward: ATGCTGCAACTGATGTTCCTTC, reverse: GATGTTAGACCTTTCTTCCTCCC; GAPDH forward: TGTTCCTACCCCCAATGTGTCC, reverse: GGAGTTGCTGTTGAAGTCGCAG; TNF-α forward: ATGGCCTCCCTCTCATCAGT, reverse: TGGTTTGCTACGACGTGGG; IL-6 forward: AGTGGCTAAGGACCAAGAC, reverse: ATAACGCACTAGGTTTGCCGA; iNOS forward: ATTCACAGCTCATCCGGTACG, reverse: GGATCTTGACCATCAGCTTGC; IL-1β forward: GCACTACAGGCTCCGAGATGAA, reverse: GTCGTTGCTTGGTTCTCCTTGT.
Enzyme-linked immunosorbent assay (ELISA) kits were used to detect the levels of TNF-α, IL-1β, and IL-6 in the brain. Brain tissue was homogenized in 1 ml of phosphate-buffered saline using a tissue homogenizer. […] BV-2 cells were incubated with different treatments and the supernatants were collected and measured.

[1] = Drug concentration in serum and tissues by LC-MS, pharmacokinetics and BBB permeability; type: in vivo, mice; details: for concentration in CL brain: contralateral non-ischemic hemisphere; for concentration in CL brain / AUC(0-t) / concentration at 5 min / concentration at 10 min / concentration at 30 min / concentration at 1 h / concentration at 2 h / concentration at 6 h: mean ± SD; for Kp / half-life / AUC(0-t) / concentration at 5 min / concentration at 10 min / concentration at 30 min / concentration at 1 h / concentration at 2 h / concentration at 6 h: C57BL/6, mouse; for Kp / half-life / AUC(0-t): iv; for Kp: mean AUC0–6 h ratio, read-out: Kp (brain-serum ratio, AUCbrain/AUCserum); for half-life: read-out: t1/2 (elimination half-life) (converted); for AUC(0-t): read-out: AUC0–6 h; for concentration at 5 min / concentration at 10 min / concentration at 30 min / concentration at 1 h / concentration at 2 h / concentration at 6 h: intravenous
Description: The mice were intravenously injected with 15 mg/kg TJ-5 at the time of reperfusion 1 h after MCAO or Sham. The mice were then anesthetized at 5 min, 10 min, 30 min, 1 h, and 2 h, or 6 h post-dosing. Blood was collected to prepare serum samples, and the ipsilateral ischemic hemisphere (IL brain), contralateral non-ischemic hemisphere (CL brain), heart, and liver samples were obtained after transcardial perfusion with 0.9% saline. Liquid chromatography-mass spectrometry (LC-MS) was performed to determine the concentration of TJ-5 in the samples. The time-concentration curve, area under the curve (AUC), and pharmacokinetic (PK) parameters of TJ-5 were analyzed using the PKslover 2.0 PK software ([Zhang et al., 2010]). BBB permeability was evaluated using the brain-to-serum partition coefficient (Kp), which was calculated as AUCbrain/AUCserum.

BV-2 cells = test: CCK-8 cell viability assay, BV-2; type: cell-based; details: concentrations below 20 μM, 24 h
Description: (§1) BV-2 and SH-SY5Y cells were seeded in a 96-well plate at a density of 1 × 10^4 cells/well. Twenty-4 hours later, different concentrations of TJ-5 (0, 1, 5, 10, 20, and 30 μM) were added and co-cultured with cells for 24 h. Cell Counting Kit-8 (CCK8, Sigma, Shanghai, China) was used to measure cell viability. Experiments were conducted according to the manufacturer’s instructions. After incubation at 37°C for 2 h, absorbance was measured at 450 nm using a microplate reader (Synergy 2, BioTek Instruments, United States).

SH-SY5Y cells = test: CCK-8 cell viability assay, SH-SY5Y; type: cell-based
Description: as §1

[2] = test system: LPS-stimulated BV-2 cells; test: LPS-stimulated BV-2 cell model: morphology and TNF-α/IL-6 ELISA; type: cell-based
Description: BV-2 microglial and SH-SY5Y cells were cultured as previously described ([Zhao et al., 2020]). A lipopolysaccharide (LPS)-stimulated BV-2 cell model was established to mimic severe neuroinflammation induced by multiple inflammatory mediators after reperfusion ([Li et al., 2021]). BV-2 cells were pretreated with different concentrations of TJ-5 for 2 h before LPS (1 μg/ml) stimulation (#L2880, Sigma, United States). Twenty-4 hours later, BV-2 cells and the culture supernatants were harvested for subsequent experiments. In addition, ST2825, a recognized MyD88 inhibitor, was used as positive control group.
Enzyme-linked immunosorbent assay (ELISA) kits were used to detect the levels of TNF-α, IL-1β, and IL-6 in the brain. Brain tissue was homogenized in 1 ml of phosphate-buffered saline using a tissue homogenizer. Then, the homogenates were centrifuged at 14,000 g for 10 min at 4 °C. The supernatant was immediately transferred for measurement following the manufacturer’s instructions. BV-2 cells were incubated with different treatments and the supernatants were collected and measured.

## O=C(CCN1CCN(Cc2ccccc2)CC1)Nc1nc(-c2ccccc2)cs1 [TJ-5]
CIRI mice; RT-qPCR
  iNOS (with TNF-α, IL-6, IL-1β) mRNA expression levels in the brain: downregulated
CIRI mice; RT-qPCR and ELISA
  expression of TNF-α, IL-1β, and IL-6 in the brain (mRNA and protein): reduced
[1]; 15 mg/kg i.v. at reperfusion 1 h after MCAO, 5 min
  concentration in CL brain: 5877.53 ± 989.32 ng/g
[1]; 15 mg/kg i.v. at reperfusion 1 h after MCAO, 10 min
  concentration in CL brain: 5364.30 ± 749.83 ng/g
[1]; 15 mg/kg i.v. at reperfusion 1 h after MCAO, 30 min
  concentration in CL brain: 2480.87 ± 985.41 ng/g
[1]; 15 mg/kg i.v. at reperfusion 1 h after MCAO, 1 h
  concentration in CL brain: 1662.40 ± 117.03 ng/g
[1]; 15 mg/kg i.v. at reperfusion 1 h after MCAO, 2 h
  concentration in CL brain: 347.65 ± 55.25 ng/g
[1]; 15 mg/kg i.v. at reperfusion 1 h after MCAO, 6 h
  concentration in CL brain: 10.43 ± 5.69 ng/g
[1]; 15 mg/kg i.v., brain vs serum concentrations
  BBB permeability: good BBB permeability
[1]; CL brain (contralateral non-ischemic hemisphere) / serum, 15 mg/kg i.v., CL brain
  Kp: 5.21
[1]; IL brain (ipsilateral ischemic hemisphere) / serum, 15 mg/kg i.v., IL brain
  Kp: 5.58
[1]; brain (Sham) / serum, 15 mg/kg i.v., Sham brain
  Kp: 4.98
[1]; contralateral non-ischemic hemisphere (CL brain), 15 mg/kg i.v., CL brain
  half-life: 24.6 min
[1]; contralateral non-ischemic hemisphere (CL brain), 15 mg/kg i.v., CL brain, tissue density assumed 1 g/ml
  AUC(0-t): 4790 ± 353 ng·h/mL
[1]; 15 mg/kg i.v., Sham brain, 5 min, read-out: concentration in Sham brain
  concentration at 5 min: 6230 ± 436 ng/g
[1]; 15 mg/kg i.v., Sham brain, 10 min, read-out: concentration in Sham brain
  concentration at 10 min: 4900 ± 53.9 ng/g
[1]; 15 mg/kg i.v., Sham brain, 30 min, read-out: concentration in Sham brain
  concentration at 30 min: 2730 ± 256 ng/g
[1]; 15 mg/kg i.v., Sham brain, 1 h, read-out: concentration in Sham brain
  concentration at 1 h: 1580 ± 469 ng/g
[1]; 15 mg/kg i.v., Sham brain, 2 h, read-out: concentration in Sham brain
  concentration at 2 h: 268 ± 6.25 ng/g
[1]; 15 mg/kg i.v., Sham brain, 6 h, read-out: concentration in Sham brain
  concentration at 6 h: 18.7 ± 11 ng/g
[1]; 15 mg/kg i.v., heart, 5 min, read-out: concentration in heart
  concentration at 5 min: 5910 ± 825 ng/g
[1]; 15 mg/kg i.v., heart, 10 min, read-out: concentration in heart
  concentration at 10 min: 4590 ± 352 ng/g
[1]; 15 mg/kg i.v., heart, 30 min, read-out: concentration in heart
  concentration at 30 min: 4730 ± 2060 ng/g
[1]; 15 mg/kg i.v., heart, 1 h, read-out: concentration in heart
  concentration at 1 h: 1660 ± 335 ng/g
[1]; 15 mg/kg i.v., heart, 2 h, read-out: concentration in heart
  concentration at 2 h: 684 ± 199 ng/g
[1]; 15 mg/kg i.v., heart, 6 h, read-out: concentration in heart
  concentration at 6 h: 51.6 ± 11.9 ng/g
[1]; 15 mg/kg i.v., liver, 5 min, read-out: concentration in liver
  concentration at 5 min: 7160 ± 594 ng/g
[1]; 15 mg/kg i.v., liver, 10 min, read-out: concentration in liver
  concentration at 10 min: 5890 ± 528 ng/g
[1]; 15 mg/kg i.v., liver, 30 min, read-out: concentration in liver
  concentration at 30 min: 4710 ± 1130 ng/g
[1]; 15 mg/kg i.v., liver, 1 h, read-out: concentration in liver
  concentration at 1 h: 2960 ± 1030 ng/g
[1]; 15 mg/kg i.v., liver, 2 h, read-out: concentration in liver
  concentration at 2 h: 750 ± 249 ng/g
[1]; 15 mg/kg i.v., liver, 6 h, read-out: concentration in liver
  concentration at 6 h: 170 ± 36.1 ng/g
[1]; 15 mg/kg i.v., serum, 5 min, read-out: concentration in serum
  concentration at 5 min: 1190 ± 209 ng/mL
[1]; 15 mg/kg i.v., serum, 10 min, read-out: concentration in serum
  concentration at 10 min: 980 ± 203 ng/mL
[1]; 15 mg/kg i.v., serum, 30 min, read-out: concentration in serum
  concentration at 30 min: 472 ± 151 ng/mL
[1]; 15 mg/kg i.v., serum, 1 h, read-out: concentration in serum
  concentration at 1 h: 285 ± 29.1 ng/mL
[1]; 15 mg/kg i.v., serum, 2 h, read-out: concentration in serum
  concentration at 2 h: 79.6 ± 26.9 ng/mL
[1]; 15 mg/kg i.v., serum, 6 h, read-out: concentration in serum
  concentration at 6 h: 2.08 ± 1.12 ng/mL
[1]; ipsilateral ischemic hemisphere (IL brain), 15 mg/kg i.v. at reperfusion 1 h after MCAO, ipsilateral ischemic hemisphere, 5 min, read-out: concentration in IL brain
  concentration at 5 min: 6650 ± 591 ng/g
[1]; ipsilateral ischemic hemisphere (IL brain), 15 mg/kg i.v. at reperfusion 1 h after MCAO, ipsilateral ischemic hemisphere, 10 min, read-out: concentration in IL brain
  concentration at 10 min: 5799 ± 29.8 ng/g
[1]; ipsilateral ischemic hemisphere (IL brain), 15 mg/kg i.v. at reperfusion 1 h after MCAO, ipsilateral ischemic hemisphere, 30 min, read-out: concentration in IL brain
  concentration at 30 min: 2890 ± 611 ng/g
[1]; ipsilateral ischemic hemisphere (IL brain), 15 mg/kg i.v. at reperfusion 1 h after MCAO, ipsilateral ischemic hemisphere, 1 h, read-out: concentration in IL brain
  concentration at 1 h: 1750 ± 164 ng/g
[1]; ipsilateral ischemic hemisphere (IL brain), 15 mg/kg i.v. at reperfusion 1 h after MCAO, ipsilateral ischemic hemisphere, 2 h, read-out: concentration in IL brain
  concentration at 2 h: 327 ± 57.2 ng/g
[1]; ipsilateral ischemic hemisphere (IL brain), 15 mg/kg i.v. at reperfusion 1 h after MCAO, ipsilateral ischemic hemisphere, 6 h, read-out: concentration in IL brain
  concentration at 6 h: 11.7 ± 6.43 ng/g
[1]; ipsilateral ischemic hemisphere (IL brain), 15 mg/kg i.v., IL brain
  half-life: 24.6 min
[1]; ipsilateral ischemic hemisphere (IL brain), 15 mg/kg i.v., IL brain, tissue density assumed 1 g/ml
  AUC(0-t): 5140 ± 239 ng·h/mL
[1]; 15 mg/kg i.v., Sham brain
  half-life: 39 min
[1]; 15 mg/kg i.v., Sham brain, tissue density assumed 1 g/ml
  AUC(0-t): 4580 ± 276 ng·h/mL
[1]; 15 mg/kg i.v., heart
  half-life: 40.2 min
[1]; 15 mg/kg i.v., heart, tissue density assumed 1 g/ml
  AUC(0-t): 6480 ± 769 ng·h/mL
[1]; 15 mg/kg i.v., liver
  half-life: 42 min
[1]; 15 mg/kg i.v., liver, tissue density assumed 1 g/ml
  AUC(0-t): 8240 ± 852 ng·h/mL
[1]; 15 mg/kg i.v., serum
  AUC(0-t): 919 ± 82.2 ng·h/mL
  half-life: 22.8 min
[1]; single intravenous injection of 15 mg/kg
  time effective concentration is maintained: about 6 h
BV-2 cells
  viability of BV-2 cells: did not affect the viability
SH-SY5Y cells; SH-SY5Y cells
  neurotoxicity: no neurotoxicity
SH-SY5Y cells; concentrations below 20 μM, 24 h, CCK-8
  viability of SH-SY5Y cells: did not affect the viability
[2]; LPS-stimulated BV-2 cells, pretreatment 2 h, LPS 24 h, ELISA
  levels of TNF-α and IL-6 in supernatants: markedly reduced
[2]; pretreatment 2 h before LPS 1 μg/ml, 24 h
  activation (morphology) of LPS-stimulated BV-2 cells: inhibited
